From US11660342B2, “Method for increasing permeability of blood-brain barrier” (POSTECH Research and Business Development Foundation, priority 2020, dated 2023) come the findings set out here.

A short description of series [1]: Behaviour in water (aggregation, solubility). The format is physicochemical.
A short description of series [2]: Ultrasound-responsive NO release, real-time NO analysis. The conditions noted are these: FIG. 5. The format is physicochemical. The procedure: Subsequently, ultrasound-responsive NO release of the nanogenerator was monitored under physiological conditions (DPBS, pH 7.4, 37° C.). When ultrasound was absent, only a small overall amount (1.53 nmol/mg) of NO was released.

Each structure is given as a SMILES string.

`CCC(C)N(N=O)c1ccc(N(N=O)C(C)CC)cc1` (centres unmarked) [BNN6, N,N′-di-sec-butyl-N,N′-dinitroso-1,4-phenylenediamine]: in series [1], the water solubility entry was “water-insoluble”. Also, the “ultrasound-responsive nitric oxide release behavior” value in series [2] is recorded as “complete NO-releasability”.
